In PMC9603946, “On the Sensitivity of the Virion Envelope to Lipid Peroxidation” (Microbiology Spectrum, 2022):

Legend:
HSV-1 = HSV-1 virion infectivity (plaquing efficiency) on HFF cells after virion pretreatment; details: for EC50: Human alphaherpesvirus 1, HFF
Protocol: The inocula were removed, and the cells were washed and then incubated at 37°C in 5% CO2 until plaques were visible and well-resolved (about 2 days), at which time they were fixed and stained with crystal violet.
HSV-1 suspensions of 20,000 plaque PFU in 250 μL DMEM were mixed 1:1 with 2-fold serial dilutions of the general peroxidators and were incubated in a water bath for 2 h at 37°C. Next, treated virions were diluted 1:100 before being adsorbed onto cells for 1 h at 37°C. The inocula were removed, and the cells were washed twice with cold DMEM. Infected cells were overlaid with DMEM supplemented with 2% (Vero) or 1% (HFF) methylcellulose and 5% FBS and were incubated at 37°C until plaques were visible and well-resolved, typically in about 2 days. Cell monolayers were fixed and stained with 1% crystal violet in 17% methanol for 18 h at RT. The cells were washed, and the plaques were counted and normalized to those produced by the vehicle treated virions.
To test the effects of lipid soluble antioxidants on virions, 10 μM vitamin E loaded onto 1% carrier BSA in the dark for 4.5 h at RT was incubated with 10^6 HSV-1 virions for 3 h at 37°C. […] The treated virions were diluted 1:100 before infecting cells. […] The mix was incubated for 2 h at 37°C, diluted 1:100, and used to infect cells. The infectivity of an aliquot of treated virions was tested via a plaque assay.

HSV-1 virions [1] = experiment: HSV-1 virion lipid peroxidation probed with C11-Bodipy; design: species or system HSV-1 KOS; details: Human alphaherpesvirus 1, Bodipy probe
Protocol: (§1) The effects of peroxidators have been commonly evaluated against purified lipids and liposomes as a proxy, but they have not been evaluated against virions ([50], [53][–][55]). We instead directly evaluated the extent of virion lipid peroxidation.
To evaluate virion lipoperoxidation with C11-Bodipy, 50 μL DMEM containing 5 × 10^6 PFU of HSV-1 was added into each well of 96-well plates. Virions were then preloaded with 0.1 mol % of C11-Bodipy for 30 min at 37°C. […] Fluorescence was evaluated in a TECAN Infinite M200 Pro at 550 nm excitation and 580 to 630 nm emission with the reading peak at 600 nm.
(§2) To evaluate the effects of a lipid soluble antioxidant, cells or virions were preloaded with vitamin E-BSA for 3 h at 37°C. Vitamin E-BSA containing medium was removed, and the cells were washed twice with DMEM. Liperfluo (20 or 10 μM for cells or virions, respectively) or C11-Bodipy (1 μM for cells or 0.1 mol% for virions) were preloaded into the cells or virions for 30 min at 37°C.
(§3) To evaluate the effects of water soluble antioxidants, liperfluo (20 μM for cells or 10 μM for virions) or C11-Bodipy (1 μM for cells or 0.1 mol% for virions) were preloaded into the cells or virions for 30 min at 37°C. […] Fluorescence was evaluated in a TECAN Infinite M200 Pro at 515 nm excitation and 545 nm emission for liperfluo or at 550 nm excitation and 580 to 630 nm emission for C11-Bodipy.

HSV-1 virions [2] = experiment: microbe, parasite or virus in culture; design: species or system HSV-1 KOS
Protocol: as §1
To evaluate virion peroxidation using liperfluo, 50 μL DMEM that contained 5 × 10^6 PFU of HSV-1 was added to 96-well plates. Virions were then preloaded with 10 μM liperfluo for 20 min at 37°C. […] Fluorescence was evaluated in a TECAN Infinite M200 Pro at 515 nm excitation and 545 nm emission. Medium containing no virus was used as blank.
as §2, §3

HFF cells = experiment: Viability of HFF cells infected with AMVN-pretreated virions
Protocol: The inocula were removed, the cells were washed, and the viability was immediately evaluated, mimicking the conditions used to test the direct exposure of the cells to the peroxidators.
After 1 h at 37°C, the cells were washed, and cell viability was evaluated as described.

In the case of CC(C)CC(C)(C#N)N=NC(C)(C#N)CC(C)C (stereo not drawn) [AMVN, 2,2′-azobis(2,4-dimethylvaleronitrile)], the “concentration from which virion infectivity was affected” value (HSV-1) is reported as 0.7 mM, the “concentration giving a loss of infectivity of about 30%” value (HSV-1; 2 h at 37°C) is reported as 0.7 mM and the EC50 (HSV-1; 2 h, no antioxidant, virions treated 2 h at 37°C) is reported as 1100 µM. For the same compound, the EC50 (HSV-1; virions preloaded with vitamin E (10 μM, BSA carrier)) was 2700 µM, the EC50 (HSV-1; with vitamin C (10 μM)) was 1400 µM and the “SI, CC50/EC50” value (HSV-1; vitamin C) was 3.1. For the same compound, the “SI, CC50/EC50” value (HSV-1; vitamin E) was 1.8, the EC50 (HSV-1 virions [1]; no antioxidant, read-out: VP50 (concentration of peroxidant that results in 50% peroxidation in virion lipids)) was 2700 µM and the EC50 (HSV-1 virions [1]; vitamin C, read-out: VP50 (the source's name)) was 2000 µM. The EC50 (HSV-1 virions [1]; vitamin E, read-out: VP50 (the source's name)) was 2400 µM, the EC50 (HSV-1 virions [2]; Human alphaherpesvirus 1, read-out: VP50, Liperfluo probe, no antioxidant) was 1200 µM and the EC50 (HSV-1 virions [2]; Human alphaherpesvirus 1, read-out: VP50, Liperfluo probe, vitamin C) was 1200 µM. The EC50 (HSV-1 virions [2]; Human alphaherpesvirus 1, read-out: VP50, Liperfluo probe, vitamin E) was 900 µM, the “decrease of infected cell viability at the highest AMVN concentration” value (HFF cells; AMVN carried by virions) was 20 to 30% and the “concentration from which AMVN carried by virions had minor effects on infected cell viability” value (HFF cells; pretreated virions diluted 1:100) was 3000 µM.
